Active and inactive are the calls of the source. The rule behind the calls is not given here.
How the values were obtained:
Vero = assay: (§1) Cytotoxicity against African green monkey Vero cells assessed as reduction in cell viability after 72 hrs by CCK-8 assay; format: toxicity, cell-based; conditions: chlorocebus sabaeus, vero, 72 h
[1] = as §1; format: toxicity, cell-based; conditions: chlorocebus sabaeus, Vero cells
Zika virus [2] = assay: Antiviral activity against ZIKV infected in African green monkey Vero cells assessed as inhibition of viral replication at 50 uM incubated for 72 hrs by qRT-PCR analysis; format: functional, organism-based
Zika virus [3] = assay: Antiviral activity against ZIKV infected in African green monkey Vero cells assessed as inhibition of viral replication incubated for 72 hrs by qRT-PCR analysis; format: functional, organism-based
Zika virus [4] = assay: Antiviral activity against ZIKV infected in African green monkey Vero cells assessed as inhibition of viral E protein expression incubated for 72 hrs by Western blot analysis; format: functional, organism-based; conditions: dose 5-20 µM
Zika virus [5] = assay: Antiviral activity against ZIKV infected in African green monkey Vero cells assessed as inhibition of viral E protein expression at 20 uM incubated for 72 hrs by immunofluorescence analysis; format: functional, organism-based

Compound | Activity (Vero) | CC50 at 72 h [1] [µM] | inhibition (Zika virus [2]) | EC50 (Zika virus [3]) [µM] | inhibition (Zika virus [4]) | inhibition (Zika virus [5])
CC1=C2CCCC(C)(C)[C@@H]2CC[C@@]12C=C(C(C)C)C(=O)O2 | Toxic |  |  |  |  | 
CO[C@@H]1CCC(C)(C)Oc2c(O)c(C(C)C)cc3ccc(C)c1c23 |  | > 100 | Active | 8.07 | Dose-Dependent Effect | Active
CC(C)c1cc2c(c3ocnc13)[C@@]1(C)CCCC(C)(C)[C@@H]1CC2 | Toxic |  |  |  |  | 
Cc1nc2c(C(C)C)cc3c(c2o1)[C@@]1(C)CCCC(C)(C)[C@@H]1C=C3 | Toxic |  |  |  |  | 
COC(C)(C)C1=Cc2ccc(C)c3c2[C@@](O)(C1=O)C(C)(C)CCC3 |  | > 100 | Active | 8 | Dose-Dependent Effect | Active
CCc1nc2c(C(C)C)cc3c(c2o1)[C@@]1(C)CCCC(C)(C)[C@@H]1CC3 | Toxic |  |  |  |  | 

Source: ChEMBL document CHEMBL5370596, “Wulfenioidins D-N, Structurally Diverse Diterpenoids with Anti-Zika Virus Activity Isolated from Orthosiphon wulfenioides” (J Nat Prod, 2023)
